13 compounds from patent publication US20230192691A1, “HETEROCYCLIC COMPOUNDS AS BTK INHIBITORS” (Beijing InnoCare Pharma Tech Co., Ltd., priority 2020, published 2023) can be followed below.

For test [1], the target named is T1, human-derived recombinant BTK protein (Homo sapiens, UniProt Q06187).
T1 construct: purchased Carna Biosciences 08-180
Nature of the test: BTK activity inhibition assay (HTRF in vitro kinase assay). In kind it is biochemical. To be noted: 40 μM ATP, 0.2 ng/μL BTK. Here is the method: In vitro kinase assay was used to evaluate the effects of compounds of the present invention on BTK activity (Table 1).
(§1) By using the homogeneous time-resolved fluorescence (HTRF) kinase detection kit (Cisbio, catalog number 62TK0PEC), the enzymatic activity of BTK is determined by detecting the phosphorylation level of the substrate in the kinase reaction. The reaction buffer contains the enzyme reaction buffer (1×) from the kit, 5 mM MgCl2, 1 mM DTT, 10 nM SEB and 0.01% Tween-20; the kinase reaction solution contains human-derived recombinant BTK protein (Carna Biosciences, Catalog No. 08-180) diluted to 0.2 ng/μL with the reaction buffer; the substrate reaction solution contains biotin-labeled tyrosine kinase substrate diluted to 0.5 μM with the reaction buffer and 40 μM ATP; the detection buffer contains Eu^3+-labeled cage antibody diluted to 0.05 ng/μL and streptavidin-labeled XL665 antibody diluted to 31.25 nM with the reaction buffer; the test compound is dissolved and diluted to 100 μM with DMSO, followed by a 4-fold serial dilution with DMSO to the lowest concentration of 6.1 nM and finally 40-time dilution with the reaction buffer for each concentration point. If the IC50 value of the compound is very low, the initial concentration of the compound is reduced.
(§2) Add 4 μL test compound solution and 2 μL kinase reaction solution to a 384-well detection plate (Corning, catalog number 3674), mix well and incubate at room temperature for 15 minutes; add 4 μL substrate reaction solution and incubate for 50 minutes; add 10 μL detection buffer, mix well and stand for 60 minutes; detect signal at 620 nm and 665 nm using an Envision plate reader (Perkin Elmer). The signal value (absorbance at 665 nm/absorbance at 620 nm) is positively correlated with the degree of phosphorylation of the substrate, thereby detecting the kinase activity of BTK. In this experiment, the group without BTK is the negative control (100% inhibition) and the group with BTK but no compound is the positive control (0% inhibition). The inhibition curve is plotted and the corresponding IC50 value of the test compound is calculated using XLfit software (ID Business Solutions Ltd., UK).

Test [2] deals with T2, human recombinant BTK C481S protein (Homo sapiens, UniProt Q06187, C481S).
T2 construct: made in house
As to the kind of experiment: BTK C481S activity inhibition assay (HTRF in vitro kinase assay). It is filed as biochemical. The settings on record: 35 μM ATP, 1.5 ng/μL BTK C481S. The method, then:
In vitro kinase assay was used to evaluate the effects of compounds of the present invention on BTK C481S activity (Table 1).
as §1, with “BTK C481S” for “BTK”, “nM SEB,” for “nM SEB”, “contains human” for “contains human-derived”, “protein (purified in-house)” for “protein (Carna Biosciences, Catalog No. 08-180)”, “to 1.5” for “to 0.2”, “and 35” for “and 40”
as §2, with “activity of BTK C481S. In this” for “activity of BTK. In this”, “with BTK C481 S but no” for “with BTK but no”, “XLfit software (TD Business Solutions” for “XLfit software (ID Business Solutions”

T2 sequence (Q06187 whole entry C481S): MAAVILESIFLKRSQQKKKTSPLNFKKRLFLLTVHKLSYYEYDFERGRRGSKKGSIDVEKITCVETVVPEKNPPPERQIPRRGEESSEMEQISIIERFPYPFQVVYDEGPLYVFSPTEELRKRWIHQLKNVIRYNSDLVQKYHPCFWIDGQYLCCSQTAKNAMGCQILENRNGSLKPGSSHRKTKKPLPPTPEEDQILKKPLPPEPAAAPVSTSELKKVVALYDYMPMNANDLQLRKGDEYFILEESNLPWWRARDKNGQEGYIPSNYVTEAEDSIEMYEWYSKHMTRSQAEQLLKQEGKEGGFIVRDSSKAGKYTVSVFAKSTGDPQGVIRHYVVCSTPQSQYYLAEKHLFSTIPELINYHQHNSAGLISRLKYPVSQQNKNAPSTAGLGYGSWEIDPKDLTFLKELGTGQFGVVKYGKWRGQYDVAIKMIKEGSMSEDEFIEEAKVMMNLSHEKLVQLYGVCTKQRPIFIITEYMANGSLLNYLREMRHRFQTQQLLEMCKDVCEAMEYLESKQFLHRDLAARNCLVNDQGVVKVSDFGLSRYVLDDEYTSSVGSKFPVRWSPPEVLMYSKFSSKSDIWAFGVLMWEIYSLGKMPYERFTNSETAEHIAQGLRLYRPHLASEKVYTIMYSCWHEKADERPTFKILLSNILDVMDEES
T1 sequence (Q06187 whole entry): as the sequence (Q06187 whole entry C481S) above, with S481C counted along it

As to `COc1ccc(F)cc1C(=O)NCc1ccc(-c2nc(N3CCOCC3)n3ccnc(N)c23)cc1` [Compound 44, N-(4-(8-amino-3-morpholinoimidazo[1,5-a]pyrazin-1-yl)benzyl)-5-fluoro-2-methoxybenzamide], the IC50 in test [1] stood at 10 nM; in test [2], 7.1 nM.
For `COc1ccc(F)cc1C(=O)NCc1ccc(-c2nc([C@H]3CC[C@H](CO)CC3)n3ncnc(N)c23)cc1` [Compound 14, N-(4-(4-amino-7-((1r,4r)-4-(hydroxymethyl)cyclohexyl)imidazo[5,1-f][1,2,4]triazin-5-yl)benzyl)-5-fluoro-2-methoxybenzamide], in that order: 3.2 nM and 2.9 nM.
For `COc1ccc(F)cc1C(=O)NCc1ccc(-c2nc(C3CCCOC3)n3ccnc(N)c23)cc1` (centres unmarked) [Compound 21, N-(4-(8-amino-3-(tetrahydro-2H-pyran-3-yl)imidazo[1,5-a]pyrazin-1-yl)benzyl)-5-fluoro-2-methoxybenzamide], in that order: 1.7 nM and 1.8 nM.
Taken in the same sequence, the figures for `COc1ccc(F)cc1C(=O)NCc1ccc(-n2c(=O)n(C34CCC(C(=O)N5CCOCC5)(CC3)CC4)c3ncnc(N)c32)cc1` [Compound 54, N-(4-(6-amino-9-(4-(morpholine-4-carbonyl)bicyclo[2.2.2]octan-1-yl)-8-oxo-8,9-dihydro-7H-purin-7-yl)benzyl)-5-fluoro-2-methoxybenzamide] were 5.8 nM and 6.1 nM.
On to `COc1ccc(F)cc1C(=O)NCc1ccc(-c2nc(C34CCC(C(=O)O)(CC3)C4)n3ccnc(N)c23)cc1` [Compound 40, 4-(8-amino-1-(4-((5-fluoro-2-methoxybenzamido)methyl)phenyl)imidazo[1,5-a]pyrazin-3-yl)bicyclo[2.2.1]heptane-1-carboxylic acid], for which the IC50 in test [1] amounted to 0.4 nM; in test [2], 1.1 nM.
For the compound `[2H]C([2H])([2H])Oc1ccc(F)cc1C(=O)NCc1ccc(-c2nc(C3CCCOC3)n3ccnc(N)c23)cc1` (centres unmarked) [Compound 25, N-(4-(8-amino-3-(tetrahydro-2H-pyran-3-yl)imidazo[1,5-a]pyrazin-1-yl)benzyl)-5-fluoro-2-(methoxy-dz)benzamide], the results for the IC50 in test [1] and in test [2] were 1.1 nM and 1.5 nM, respectively.
For `COc1ccc(F)cc1C(=O)NCc1ccc(-c2nc(C34CCC(C(=O)O)(CC3)CC4)n3ccnc(N)c23)cc1` [Compound 34, 4-(8-amino-1-(4-((5-fluoro-2-methoxybenzamido)methyl)phenyl)imidazo[1,5-a]pyrazin-3-yl)bicyclo[2.2.2]octane-1-carboxylic acid], in that order: 0.9 nM and 1.5 nM.
Turning to `COc1ccc(F)cc1C(=O)NCc1ccc(-c2nc(C3CCOC3)n3ncnc(N)c23)cc1` (centres unmarked) [Compound 17, N-(4-(4-amino-7-(tetrahydrofuran-3-yl)imidazo[5,1-f][1,2,4]triazin-5-yl)benzyl)-5-fluoro-2-methoxybenzamide], the IC50 in test [1] is 6.3 nM; in test [2], 2.4 nM.
Taken in the same sequence, the figures for `CNC(=O)C12CCC(c3nc(-c4ccc(CNC(=O)c5cc(F)ccc5OC)cc4)c4c(N)nccn34)(CC1)CC2` [Compound 36, 4-(8-amino-1-(4-((5-fluoro-2-methoxybenzamido)methyl)phenyl)imidazo[1,5-a]pyrazin-3-yl)-N-methylbicyclo[2.2.2]octane-1-carboxamide] were 0.9 nM and 3.4 nM.
For `COc1ccc(F)cc1C(=O)NCc1ccc(-c2nn([C@H]3CC[C@H](O)CC3)c3ccnc(N)c23)cc1` [Compound 4, N-(4-(4-amino-1-((1r,4r)-4-hydroxycyclohexyl)-1H-pyrazolo[4,3-c]pyridin-3-yl)benzyl)-5-fluoro-2-methoxybenzamide], in that order: 2.3 nM and 3 nM.
Taken in the same sequence, the figures for `COc1ccc(F)cc1C(=O)NCc1ccc(-c2nn([C@H]3CC[C@@H](O)CC3)c3ccnc(N)c23)cc1` [Compound 3, N-(4-(4-amino-1-((1s,4s)-4-hydroxycyclohexyl)-1H-pyrazolo[4,3-c]pyridin-3-yl)benzyl)-5-fluoro-2-methoxybenzamide] were 3.2 nM and 4.6 nM.
On to `COC(=O)C12CCC(c3nc(-c4ccc(CNC(=O)c5cc(F)ccc5OC)cc4)c4c(N)nccn34)(CC1)C2` [Compound 38, methyl 4-(8-amino-1-(4-((5-fluoro-2-methoxybenzamido)methyl)phenyl)imidazo[1,5-a]pyrazin-3-yl)bicyclo[2.2.1]heptane-1-carboxylate], for which the IC50 in test [1] was 2.9 nM; in test [2], 2.1 nM.
Taken in the same sequence, the figures for `COC(=O)C12CCC(c3nc(-c4ccc(CNC(=O)c5cc(F)ccc5OC)cc4)c4c(N)ncnn34)(CC1)CC2` [Compound 28, methyl 4-(4-amino-5-(4-((5-fluoro-2-methoxybenzamido)methyl)phenyl)imidazo[5,1-f][1,2,4]triazin-7-yl)bicyclo[2.2.2]octane-1-carboxylate] were 1 nM and 2.2 nM.
